In article PMC9065678, “BI 1015550 is a PDE4B Inhibitor and a Clinical Drug Candidate for the Oral Treatment of Idiopathic Pulmonary Fibrosis” (Frontiers in Pharmacology, 2022):

Assays:
[1] = biological target: T1, PDE7A (Homo sapiens, UniProt Q13946); assay: Recombinant PDE activity, scintillation proximity assay: PDE7A; type: biochemical; conditions: calculated IC50
T1 construct: made in house; host or cells: SF9 insect cells (baculovirus, Bac-To-Bac, pFastbac)
Text: (§1) For the preparation of human recombinant PDEs of interest, the Bac-To-Bac baculoviral expression system from Invitrogen (Carlsbad, CA, United States) was used according to the instruction manual. In short, the full-length open reading frames of PDE1C (National Center for Biotechnology Information Gene-Ref-Seq identifier NG_051183), PDE3A (NG_030033), PDE4A (NG_029594, AA 156–886), PDE4C (NG_029629), PDE7A (NG_029614), and PDE9A (NG_047067) were cloned into the plasmid vector pFastbac. For PDE4B and PDE4D, active site fragments were used (PDE4B NG_029038: AA 152–484, PDE4D NG_027957, AA 79–438). The plasmids were transformed into DH10Bac bacteria, SF9 insect cells were transfected with the bacmid DNA, and the resulting baculoviruses were stored and used for further rounds of infections. […] The protein content was measured and an equal volume of 87% (v/v) glycerol was added prior to freezing at −20°C. […] The reaction was stopped by addition of 50 µL of yttrium silicate scintillation proximity assay beads (17.8 mg/mL, 18 mM zinc sulfate in H2O) and the amount of produced [^3H]AMP/[^3H]GMP associated was determined using a Wallac Microbeta scintillation counter. […]

[2] = biological target: T2, PDE1C (Homo sapiens, UniProt Q14123); assay: Recombinant PDE activity, scintillation proximity assay: PDE1C; type: biochemical
T2 construct: the full-length open reading frames of PDE1C; made in house; host or cells: SF9 insect cells (baculovirus, Bac-To-Bac, pFastbac)
Text: as §1

[3] = system: LPS-induced neutrophil influx into the BALF; assay: LPS-induced neutrophil influx into the BALF of Suncus murinus; type: in vivo
Text: Compared with other animal species used to study emesis induction by PDE4 inhibitors, like ferrets, dogs, minipigs, or monkeys, Suncus murinus allows the testing of a sufficient number of animals to provide a high statistical power. […] Male Suncus murinus (weight 50–55 g) from Boehringer Ingelheim (Biberach an der Riss, Germany) or male Wistar rats (200–250 g, Charles River), eight animals per group, were used. […] For this purpose, animals in the positive control and treatment groups were put into a circular Plexiglas chamber with 16 pie-like compartments for one animal each, and were consecutively exposed to nebulized LPS for 30 min. The LPS solution used for nebulization contained 1 mg/mL LPS in phosphate-buffered saline (PBS). Nebulization was performed with the commercially available PARI Master® nebulizer with a PARI Master® LL adapter (Pari GmbH, Starnberg, Germany). 4 h after LPS exposure, the animals were anesthetized and euthanized by cervical dislocation. After sacrifice, the trachea was cannulated and bronchoalveolar lavage was performed by instilling and re-aspirating two-times 1 mL (Suncus murinus) or 5 mL (rat) lavage buffer (PBS +2% bovine serum albumin). BALF volumes were recorded manually. Determination of neutrophil numbers in BALF was performed using a blood hemacytometer (Sysmex XT-1800i, Kobe, Japan).

[4] = system: PDE6; assay: PDE6 inhibition screen at Eurofins Cerep; type: biochemical, bovine; conditions: screened at Eurofins Cerep

T2 sequence (Q14123 whole entry): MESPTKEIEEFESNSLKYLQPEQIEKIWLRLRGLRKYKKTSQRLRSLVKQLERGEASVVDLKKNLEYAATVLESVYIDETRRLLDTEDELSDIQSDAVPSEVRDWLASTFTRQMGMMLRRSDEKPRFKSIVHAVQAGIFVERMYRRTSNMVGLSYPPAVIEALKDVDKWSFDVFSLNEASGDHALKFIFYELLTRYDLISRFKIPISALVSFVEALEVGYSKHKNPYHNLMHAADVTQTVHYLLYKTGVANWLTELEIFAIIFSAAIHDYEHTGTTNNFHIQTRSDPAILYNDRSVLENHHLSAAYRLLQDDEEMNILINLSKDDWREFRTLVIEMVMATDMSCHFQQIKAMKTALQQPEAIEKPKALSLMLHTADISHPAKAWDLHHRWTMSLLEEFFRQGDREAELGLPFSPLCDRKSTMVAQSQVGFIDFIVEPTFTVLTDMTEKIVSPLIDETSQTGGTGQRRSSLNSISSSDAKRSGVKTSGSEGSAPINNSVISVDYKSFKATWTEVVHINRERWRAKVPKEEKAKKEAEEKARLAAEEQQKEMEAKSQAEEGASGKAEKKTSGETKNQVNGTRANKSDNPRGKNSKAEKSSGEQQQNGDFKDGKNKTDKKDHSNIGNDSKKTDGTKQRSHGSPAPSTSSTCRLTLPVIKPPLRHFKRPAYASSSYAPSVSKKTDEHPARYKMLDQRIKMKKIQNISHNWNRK
T1 sequence (Q13946 whole entry): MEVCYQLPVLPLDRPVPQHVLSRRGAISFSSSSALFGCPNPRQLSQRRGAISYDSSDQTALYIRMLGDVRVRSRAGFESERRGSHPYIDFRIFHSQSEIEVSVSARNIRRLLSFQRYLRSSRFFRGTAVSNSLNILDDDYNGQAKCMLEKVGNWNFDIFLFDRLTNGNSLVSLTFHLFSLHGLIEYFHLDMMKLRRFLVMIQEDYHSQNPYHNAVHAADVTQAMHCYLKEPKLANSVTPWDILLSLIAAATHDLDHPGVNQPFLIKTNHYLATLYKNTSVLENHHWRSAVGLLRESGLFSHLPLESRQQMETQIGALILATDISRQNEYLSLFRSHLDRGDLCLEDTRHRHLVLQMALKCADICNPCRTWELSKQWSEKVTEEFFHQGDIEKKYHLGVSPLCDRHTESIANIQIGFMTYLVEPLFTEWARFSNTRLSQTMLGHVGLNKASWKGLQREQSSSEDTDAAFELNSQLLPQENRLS

Structure (SMILES): [O-][S+]1CCc2nc(N3CCC(c4ncc(Cl)cn4)CC3)nc(NC3(CO)CCC3)c21 (centres unmarked) [BI 1015550]
- IC50 [1]: 14 µM
- IC50 ([2]; substrate cAMP): 46 µM
- IC50 ([2]; substrate cGMP): 85 µM
- Neutrophils in BALF, inhibition in % given as negative number ([3]; 0.1 mg/kg p.o.): −23%
- Neutrophils in BALF, inhibition in % given as negative number ([3]; 0.3 mg/kg p.o.): −36%
- Neutrophils in BALF, inhibition in % given as negative number ([3]; 1.0 mg/kg p.o.): −59%
- ED50 LPS-induced BALF neutrophils ([3]; oral, 30 min before nebulized LPS): 0.6 mg/kg
- Inhibition of bovine PDE6 [4]: did not inhibit
